Test system: HCV 1b genotype replicon
Test: HCV replicon assay (qRT-PCR or luciferase), genotype 1b
Type: cell-based
Details: Hepatitis C virus, Table 11, qRT-PCR or luciferase assay, read-out: Genotype-1b replicon EC50 Range
Text: HCV replicon cell lines (kindly provided by R. Bartenschlager) isolated from colonies as described by Lohman et. al. (Lohman et al. (1999) Science 285: 110-113, expressly incorporated by reference in its entirety) and used for all experiments. The HCV replicon has the nucleic acid sequence set forth in EMBL Accession No.: AJ242651, the coding sequence of which is from nucleotides 1801 to 8406.
The coding sequence of the published HCV replicon was synthesized and subsequently assembled in a modified plasmid pBR322 (Promega, Madison, Wis.) using standard molecular biology techniques. One replicon cell line (“SGR 11-7”) stably expresses HCV replicon RNA which consists of (i) the HCV 5′UTR fused to the first 12 amino acids of the capsid protein, (ii) the neomycin phosphotransferase gene (neo), (iii) the IRES from encephalomyocarditis virus (EMCV), and (iv) HCV […] to NSSB genes and the HCV 3′UTR. Another replicon cell line (“Huh-luc/neo-ET”) described by Vrolijk et. al. (Vrolijk et. al. (2003) Journal of Virological Methods 110:201-209, expressly incorporated by reference in its entirety) stably expresses HCV replicon RNA which consists of (i) the HCV 5′UTR fused to the first 12 amino acids of the capsid protein, (ii) the firefly luciferase reporter gene, (iii) the ubiquitin gene, (iv) the neomycin phosphotransferase gene (neo), (v) the IRES from encephalomyocarditis virus (EMCV), and (vi) HCV NS3 to NS5B genes that harbor cell culture adaptive mutations (E1202G, T1280I, K1846T) and the HCV 3′UTR.
These cell lines were maintained at 37° C., 5% CO2, 100% relative humidity in DMEM (Cat#11965-084, Invitrogen), with 10% fetal calf serum (“FCS”, Invitrogen), 1% non-essential amino acids (Invitrogen), 1% of Glutamax (Invitrogen), 1% of 100× penicillin/streptomycin (Cat#15140-122, Invitrogen) and Geneticin (Cat#10131-027, Invitrogen) at 0.75 mg/ml or 0.5 mg/ml for 11-7 and Huh-luc/neo-ET cells, respectively.
EC50 values of single agent compounds and combinations were determined by HCV RNA detection using quantitative RT-PCR, according to the manufacturer's instructions, with a TAQMAN® One-Step RT-PCR Master Mix Reagents Kit (Cat#AB 4309169, Applied Biosystems) on an ABI Model 7500 thermocycler. The TaqMan primers used for detecting and quantifying HCV RNA were obtained from Integrated DNA Technologies. HCV RNA was normalized to GAPDH RNA levels in drug-treated cells, which is detected and quantified using the Human GAPDH Endogenous Control Mix (Applied Biosystems, AB 4310884E). Total cellular RNA is purified from 96-well plates using the RNAqueous 96 kit (Ambion, Cat# AM1812). Chemical agent cytotoxicity is evaluated using an MTS assay according to the manufacturer's directions (Promega).
Since clinical drug resistance often develops in viral infections following single agent therapies, there is a need to assess the additive, antagonistic, or synergistic properties of combination therapies. We used the HCV replicon system to assess the potential use of the compound of the present invention or in combination therapies with Interferon alpha, cyclosporine analogs and inhibitors targeting other HCV proteins. The acute effects of a single or combinations of drugs are studied in the “Huh-luc/neo-ET” replicon with each chemical agent titrated in an X or Y direction in a 6 point two-fold dilution curve centered around the EC50 of each drug. Briefly, replicon cells are seeded at 7,000 cells per well in 90 ul DMEM (without phenol red, Invitrogen Cat.#31053-036) per well with 10% FCS, 1% non-essential amino acids, 1% of Glutamax and 1% of 100× penicillin/streptomycin and incubated overnight at 37° C., 5% CO2, 100% relative humidity. […]

| Compound | EC50 [nM] |
| --- | --- |
| COC(=O)N[C@@H](C(=O)N1CCC[C@H]1c1nc(-c2ccc(C#Cc3ccc4[nH]c([C@@H]5CCCN5C(=O)[C@H](NC(=O)OC)c5ccccc5)nc4c3)cc2)c[nH]1)c1ccccc1 [Example 2-1] | < 1 |
| COC(=O)N[C@@H](C(=O)N1CCC[C@H]1c1ncc(-c2ccc(CCc3ccc4nc([C@@H]5CCCN5C(=O)[C@H](NC(=O)OC)c5ccccc5)[nH]c4c3)cc2)[nH]1)c1ccccc1 [Example 2-2] | < 1 |
| COC(=O)N[C@@H](C(=O)N1CCC[C@H]1c1ncc(-c2ccc(-c3ccc4[nH]c([C@@H]5CCCN5C(=O)[C@H](NC(=O)OC)c5ccccc5)nc4c3)cc2)[nH]1)c1ccccc1 [Example 2] | < 1 |
| COC(=O)N[C@@H](C(=O)N1CCC[C@H]1c1nc(-c2ccc(/C=C/c3ccc4[nH]c([C@@H]5CCCN5C(=O)[C@H](NC(=O)OC)c5ccccc5)nc4c3)cc2)c[nH]1)c1ccccc1 [Example 357] | < 1 |
| COC(=O)N[C@@H](C(=O)N1CCC[C@H]1c1nc(-c2ccc(C#Cc3ccc4[nH]c([C@@H]5CCCN5C(=O)[C@H](NC(=O)OC)c5ccccc5)nc4c3)cc2)n[nH]1)c1ccccc1 [Example 442] | < 1 |
| COC(=O)N[C@@H](C(=O)N1CCC[C@H]1c1nc(-c2ccc(CCc3ccc4[nH]c([C@@H]5CCCN5C(=O)[C@H](NC(=O)OC)c5ccccc5)nc4c3)cc2)n[nH]1)c1ccccc1 [Example 443] | < 1 |
| COC(=O)N[C@@H](C(=O)N1CCC[C@H]1c1cc(-c2ccc(C#Cc3ccc4[nH]c([C@@H]5CCCN5C(=O)[C@H](NC(=O)OC)c5ccccc5)nc4c3)cc2)n[nH]1)c1ccccc1 [Example 445] | < 1 |
| COC(=O)N[C@@H](C(=O)N1CCC[C@H]1c1cc(-c2ccc(CCc3ccc4[nH]c([C@@H]5CCCN5C(=O)[C@H](NC(=O)OC)c5ccccc5)nc4c3)cc2)n[nH]1)c1ccccc1 [Example 446] | < 1 |
| COC(=O)N[C@H](C(=O)N1CCC[C@H]1c1ncc(-c2ccc(CCCc3ccc4[nH]c([C@@H]5CCCN5C(=O)[C@@H](NC(=O)OC)C(C)C)nc4c3)cc2)[nH]1)C(C)C [Example 449] | < 1 |
| COC(=O)N[C@H](C(=O)N1CCC[C@H]1c1nc(-c2ccc(OCc3ccc4[nH]c([C@@H]5CCCN5C(=O)[C@@H](NC(=O)OC)C(C)C)nc4c3)cc2)c[nH]1)C(C)C [Example 451] | < 1 |
| COC(=O)N[C@H](C(=O)N1CCC[C@H]1c1nc(-c2ccc(/C=C/c3ccc4[nH]c([C@@H]5CCCN5C(=O)[C@@H](NC(=O)OC)C(C)C)nc4c3)s2)c[nH]1)C(C)C [Example 453] | < 1 |
| COC(=O)N[C@H](C(=O)N1CCC[C@H]1c1nc(-c2ccc(CCc3ccc4nc([C@@H]5CCCN5C(=O)[C@@H](NC(=O)OC)C(C)C)[nH]c4c3)s2)c[nH]1)C(C)C [Example 454] | < 1 |
| COC(=O)N[C@H](C(=O)N1CCC[C@H]1c1nc(-c2ccc(CCCc3ccc4[nH]c([C@@H]5CCCN5C(=O)[C@@H](NC(=O)OC)C(C)C)nc4c3)s2)c[nH]1)C(C)C [Example 457] | < 1 |
| COC(=O)N[C@H](C(=O)N1CCC[C@H]1c1nc(-c2ccc3cc(-c4ccc5[nH]c([C@@H]6CCCN6C(=O)[C@@H](NC(=O)OC)C(C)C)nc5c4)ccc3c2)c[nH]1)C(C)C [Example 459] | < 1 |
| COC(=O)N[C@H](C(=O)N1CCC[C@H]1c1nc(-c2ccc3cc(-c4ccc5[nH]c([C@@H]6CCCN6C(=O)[C@@H](NC(=O)OC)[C@@H](C)OC)nc5c4)ccc3c2)c[nH]1)[C@@H](C)OC [Example 460] | < 1 |
| COC(=O)N[C@H](C(=O)N1CCC[C@H]1c1nc(-c2ccc3cc(-c4ccc5[nH]c([C@@H]6CCCN6C(=O)[C@H](NC(=O)OC)c6ccccc6)nc5c4)ccc3c2)c[nH]1)[C@@H](C)OC [Example 463] | < 1 |
| COC(=O)N[C@H](C(=O)N1CCC[C@H]1c1nc2cc(-c3ccc4cc(-c5c[nH]c([C@@H]6CCCN6C(=O)[C@@H](NC(=O)OC)[C@@H](C)OC)n5)ccc4c3)ccc2[nH]1)C(C)C [Example 464] | < 1 |

| Compound | EC50 [nM] |
| --- | --- |
| COC(=O)N[C@H](C(=O)N1CCC[C@H]1c1nc2cc(-c3ccc4cc(-c5c[nH]c([C@@H]6CCCN6C(=O)[C@@H](NC(=O)OC)[C@@H](C)OC)n5)ccc4c3)ccc2[nH]1)[C@@H](C)O [Example 465] | < 1 |
| CC[C@H](C)[C@H](NC(=O)OC)C(=O)N1CCC[C@H]1c1nc2cc(-c3ccc4cc(-c5c[nH]c([C@@H]6CCCN6C(=O)[C@@H](NC(=O)OC)[C@@H](C)OC)n5)ccc4c3)ccc2[nH]1 [Example 466] | < 1 |
| COC(=O)N[C@H](C(=O)N1CCC[C@H]1c1nc(C#Cc2ccc(-c3ccc4[nH]c([C@@H]5CCCN5C(=O)[C@@H](NC(=O)OC)C(C)C)nc4c3)cc2)c[nH]1)C(C)C [Example 468] | < 1 |
| COC(=O)N[C@H](C(=O)N1CCC[C@H]1c1nc(CCc2ccc(-c3ccc4[nH]c([C@@H]5CCCN5C(=O)[C@@H](NC(=O)OC)C(C)C)nc4c3)cc2)c[nH]1)C(C)C [Example 469] | < 1 |
| COC(=O)N[C@H](C(=O)N1CCC[C@H]1c1nc(C#Cc2ccc3cc(-c4ccc5[nH]c([C@@H]6CCCN6C(=O)[C@@H](NC(=O)OC)C(C)C)nc5c4)ccc3c2)c[nH]1)C(C)C [Example 471] | < 1 |
| COC(=O)N[C@H](C(=O)N1CCC[C@H]1c1nc(CCc2ccc3cc(-c4ccc5[nH]c([C@@H]6CCCN6C(=O)[C@@H](NC(=O)OC)C(C)C)nc5c4)ccc3c2)c[nH]1)C(C)C [Example 472] | < 1 |
| COC(=O)N[C@H](C(=O)N1CCC[C@H]1c1nc(-c2ccc(C#Cc3ccc4[nH]c([C@@H]5CCCN5C(=O)[C@@H](NC(=O)OC)[C@@H](C)OC)nc4c3)cc2)c[nH]1)[C@@H](C)OC [Example 473] | < 1 |
| COC(=O)N[C@H](C(=O)N1CCC[C@H]1c1nc(-c2ccc3cc(C#Cc4ccc5[nH]c([C@@H]6CCCN6C(=O)[C@@H](NC(=O)OC)C(C)C)nc5c4)ccc3c2)c[nH]1)C(C)C [Example 475] | < 1 |
| COC(=O)N[C@H](C(=O)N1CCC[C@H]1c1nc(-c2ccc3cc(/C=C/c4ccc5[nH]c([C@@H]6CCCN6C(=O)[C@@H](NC(=O)OC)C(C)C)nc5c4)ccc3c2)c[nH]1)C(C)C [Example 477] | < 1 |
| COC(=O)N[C@H](C(=O)NCc1nc(-c2ccc(C#Cc3ccc4[nH]c([C@@H]5CCCN5C(=O)[C@@H](NC(=O)OC)C(C)C)nc4c3)cc2)c[nH]1)C(C)C [Example 479] | < 1 |
| COC(=O)N[C@H](C(=O)N1CCC[C@H]1c1nc(-c2ccc(C#Cc3ccc4[nH]c([C@@H]5CCCN5C(=O)[C@@H](OC(=O)OC)C(C)C)nc4c3)cc2)c[nH]1)C(C)C [Example 480] | < 1 |
| CCOC(=O)N[C@H](C(=O)N1CCC[C@H]1c1nc2cc(C#Cc3ccc(-c4c[nH]c([C@@H]5CCCN5C(=O)[C@@H](NC(=O)OC)C(C)C)n4)cc3)ccc2[nH]1)C(C)C [Example 481] | < 1 |
| COC(=O)N[C@H](C(=O)N1CCC[C@H]1c1nc(-c2ccc(C#Cc3cc(F)c4[nH]c([C@@H]5CCCN5C(=O)[C@@H](NC(=O)OC)C(C)C)nc4c3)cc2)c[nH]1)C(C)C [Example 483] | < 1 |
| COC(=O)N[C@H](C(=O)N1CCC[C@H]1c1nc(-c2ccc(C#Cc3cc4nc([C@@H]5CCCN5C(=O)[C@@H](NC(=O)OC)C(C)C)[nH]c4cc3Cl)cc2)c[nH]1)C(C)C [Example 485] | < 1 |
| COC(=O)N[C@H](C(=O)N1CCC[C@H]1c1nc(-c2ccc(C#Cc3ccc4[nH]c([C@@H]5CC(=O)CN5C(=O)[C@@H](NC(=O)OC)C(C)C)nc4c3)cc2)c[nH]1)C(C)C [Example 486] | < 1 |
| [2H]c1c([2H])c(-c2c[nH]c([C@@H]3CCCN3C(=O)[C@@H](NC(=O)OC)C(C)C)n2)c([2H])c([2H])c1C#Cc1ccc2[nH]c([C@@H]3CCCN3C(=O)[C@@H](NC(=O)OC)C(C)C)nc2c1 [Example 488] | < 1 |
